{"source": "patent US20250230462A1", "about": "“PPO2 POLYPEPTIDE HAVING TOLERANCE TO PPO INHIBITOR HERBICIDE AND APPLICATION” (priority 2022, published 2025)", "key": {"[1]": {"test_system": "rice seedlings edited at the OsPPO2 L422M/F442M site and wild-type strain", "experiment": "Tolerance of gene-edited homozygous OsPPO2 L422M/F442M rice seedlings (4-leaf stage)"}, "[2]": {"test_system": "Arabidopsis thaliana overexpressing rice OsPPO2 WT or L422M/F442M", "experiment": "Resistance test of Arabidopsis thaliana seeds overexpressing rice OsPPO2 on MS media containing PPO inhibitor herbicides", "format": "in vivo", "conditions": "for tolerance of L422M/F442M overexpression relative to overexpression of the wild type PPO2: FIGS. 4-6, different concentrations; for resistance of plants at higher application concentrations: 2 μM, 1 μM and 1 μM (compound A, flumioxazin, saflufenacil respectively); for tolerance/resistance of plants compared with wild-type Arabidopsis thaliana: plants overexpressing OsPPO2 L422M/F442M and OsPPO2 WT, levels similar at 50 nM, 10 nM and 40 nM (compound A, flumioxazin, saflufenacil respectively)", "protocol": "In order to rapidly verify the tolerance of rice OsPPO2 L422M/F442M mutants to different compounds, vectors for overexpressing wild-type and mutant rice PPO2 genes were constructed by conventional methods and overexpressed in Arabidopsis thaliana.\nThe obtained Arabidopsis thaliana seeds overexpressing rice OsPPO2 mutants and wild types were tested for resistance on MS media (petri dishes) that contained PPO inhibitor herbicidal compounds of various concentrations."}, "[3]": {"conditions": "overexpressing OsPPO2 L422M/F442M"}}, "data": [{"compound": "CCOC(=O)C1(C)CC(c2cc(-n3c(=O)cc(C(F)(F)F)n(C)c3=O)c(F)cc2Cl)=NO1", "note": "(stereo not shown)", "values": [{"measurement": "crop safety when other PPO inhibiting herbicides were applied", "setting": "[1]", "value": "excellent crop safety"}]}, {"compound": "CCOC(=O)COc1ncccc1Oc1cc(-n2c(=O)cc(C(F)(F)F)n(C)c2=O)c(F)cc1Cl", "note": "[Epyrifenacil, [3-[2-chloro-4-fluoro-5-(1-methyl-6-trifluoromethyl-2,4-dioxo-1,2,3,4-tetrahydropyrimidin-3-yl)phenoxy]-2-pyridyloxy] ethyl acetate]", "values": [{"measurement": "crop safety when other PPO inhibiting herbicides were applied", "setting": "[1]", "value": "excellent crop safety"}]}, {"compound": "Cc1nn(-c2cc(CC(Cl)C(=O)O)c(Cl)cc2F)c(=O)n1C(F)F", "note": "(stereo not shown) [carfentrazone]", "values": [{"measurement": "crop safety when other PPO inhibiting herbicides were applied", "setting": "[1]", "value": "excellent crop safety"}]}, {"compound": "C#CCN1C(=O)COc2cc(F)c(N3C(=O)C4=C(CCCC4)C3=O)cc21", "note": "[flumioxazin]", "values": [{"measurement": "tolerance of L422M/F442M overexpression relative to overexpression of the wild type PPO2", "setting": "[2]", "value": "stronger tolerance"}, {"measurement": "resistance of plants at higher application concentrations", "setting": "[2]; [3]", "value": "still exhibited resistance"}, {"measurement": "resistance of plants at higher application concentrations", "setting": "[2]; overexpressing OsPPO2 WT", "value": "no difference from the wild-type Arabidopsis thaliana controls"}, {"measurement": "tolerance/resistance of plants compared with wild-type Arabidopsis thaliana", "setting": "[2]", "value": "certain tolerance/resistance"}, {"measurement": "crop safety when other PPO inhibiting herbicides were applied", "setting": "[1]", "value": "excellent crop safety"}]}, {"compound": "CS(=O)(=O)NC(=O)c1cc(Oc2ccc(C(F)(F)F)cc2Cl)ccc1[N+](=O)[O-]", "note": "[fomesafen]", "values": [{"measurement": "crop safety when other PPO inhibiting herbicides were applied", "setting": "[1]", "value": "excellent crop safety"}]}, {"compound": "CCOc1cc(Oc2ccc(C(F)(F)F)cc2Cl)ccc1[N+](=O)[O-]", "note": "[oxyfluorfen]", "values": [{"measurement": "crop safety when other PPO inhibiting herbicides were applied", "setting": "[1]", "value": "excellent crop safety"}]}, {"compound": "C#CCN(C)c1c(C#N)cnn1-c1nn2c(c1Cl)CCCC2", "note": "[pyraclonil]", "values": [{"measurement": "crop safety when other PPO inhibiting herbicides were applied", "setting": "[1]", "value": "excellent crop safety"}]}, {"compound": "CC(C)N(C)S(=O)(=O)NC(=O)c1cc(-n2c(=O)cc(C(F)(F)F)n(C)c2=O)c(F)cc1Cl", "note": "[saflufenacil]", "values": [{"measurement": "tolerance of L422M/F442M overexpression relative to overexpression of the wild type PPO2", "setting": "[2]", "value": "stronger tolerance"}, {"measurement": "resistance of plants at higher application concentrations", "setting": "[2]; [3]", "value": "still exhibited resistance"}, {"measurement": "resistance of plants at higher application concentrations", "setting": "[2]; overexpressing OsPPO2 WT", "value": "no difference from the wild-type Arabidopsis thaliana controls"}, {"measurement": "tolerance/resistance of plants compared with wild-type Arabidopsis thaliana", "setting": "[2]", "value": "certain tolerance/resistance"}, {"measurement": "crop safety when other PPO inhibiting herbicides were applied", "setting": "[1]", "value": "excellent crop safety"}]}, {"compound": "Cc1nn(-c2cc(NS(C)(=O)=O)c(Cl)cc2Cl)c(=O)n1C(F)F", "note": "[sulfentrazone]", "values": [{"measurement": "crop safety when other PPO inhibiting herbicides were applied", "setting": "[1]", "value": "excellent crop safety"}]}, {"compound": "COC(=O)CCNC(=O)C(C)Sc1cc(-n2c(=O)cc(C(F)(F)F)n(C)c2=O)c(F)cc1Cl", "note": "(stereo not shown) [tiafenacil]", "values": [{"measurement": "crop safety when other PPO inhibiting herbicides were applied", "setting": "[1]", "value": "excellent crop safety"}]}, {"compound": "C#CCN1C(=O)C(F)(F)Oc2cc(F)c(-n3c(=O)n(C)c(=S)n(C)c3=O)cc21", "note": "[trifludimoxazin]", "values": [{"measurement": "crop safety when other PPO inhibiting herbicides were applied", "setting": "[1]", "value": "excellent crop safety"}]}]}
